From US20230416248A1, “COMPOUNDS AND USES THEREOF” (Foghorn Therapeutics Inc., priority 2020, published 2023)

Key:
BRM = target: T1, BRM (Homo sapiens, UniProt P51531); experiment: ATPase catalytic activity of BRM, ADP-Glo in vitro biochemical assay; conditions: for IC50: ADP-Glo ATPase assay, 30 nM BRM, 400 μM ATP; for Ratio* (BRG1 IC50 (μM) divided by BRM IC50 (μM)): selectivity ratio BRG1 IC50 / BRM IC50
T1 construct: made in house; host or cells: High Five insect cells
Summary of the method: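 ADP-Glo luminescence, after depletion of leftover ATP and conversion of ADP, reported the activity. The 1 h room-temperature reaction held 400 μM ATP, 20 nM salmon sperm DNA and 30 nM BRM in 20 mM Tris pH 8, 20 mM MgCl2, 50 mM NaCl, 0.1% Tween-20, 1 mM DTT.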

BRG-1 = target: T2, BRG-1 (Homo sapiens, UniProt P51532); experiment: ATPase catalytic activity of BRG-1, ADP-Glo in vitro biochemical assay; conditions: ADP-Glo ATPase assay, 30 nM BRG-1, 400 μM ATP; read-out: BRG1 IC50
T2 construct: made in house; host or cells: High Five insect cells
Summary of the method: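 ADP produced by BRG-1 was quantified by luciferase luminescence. A 60 min room-temperature ADP-to-ATP conversion followed a 40 min ATP-depletion step.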

T2 sequence (P51532 whole entry): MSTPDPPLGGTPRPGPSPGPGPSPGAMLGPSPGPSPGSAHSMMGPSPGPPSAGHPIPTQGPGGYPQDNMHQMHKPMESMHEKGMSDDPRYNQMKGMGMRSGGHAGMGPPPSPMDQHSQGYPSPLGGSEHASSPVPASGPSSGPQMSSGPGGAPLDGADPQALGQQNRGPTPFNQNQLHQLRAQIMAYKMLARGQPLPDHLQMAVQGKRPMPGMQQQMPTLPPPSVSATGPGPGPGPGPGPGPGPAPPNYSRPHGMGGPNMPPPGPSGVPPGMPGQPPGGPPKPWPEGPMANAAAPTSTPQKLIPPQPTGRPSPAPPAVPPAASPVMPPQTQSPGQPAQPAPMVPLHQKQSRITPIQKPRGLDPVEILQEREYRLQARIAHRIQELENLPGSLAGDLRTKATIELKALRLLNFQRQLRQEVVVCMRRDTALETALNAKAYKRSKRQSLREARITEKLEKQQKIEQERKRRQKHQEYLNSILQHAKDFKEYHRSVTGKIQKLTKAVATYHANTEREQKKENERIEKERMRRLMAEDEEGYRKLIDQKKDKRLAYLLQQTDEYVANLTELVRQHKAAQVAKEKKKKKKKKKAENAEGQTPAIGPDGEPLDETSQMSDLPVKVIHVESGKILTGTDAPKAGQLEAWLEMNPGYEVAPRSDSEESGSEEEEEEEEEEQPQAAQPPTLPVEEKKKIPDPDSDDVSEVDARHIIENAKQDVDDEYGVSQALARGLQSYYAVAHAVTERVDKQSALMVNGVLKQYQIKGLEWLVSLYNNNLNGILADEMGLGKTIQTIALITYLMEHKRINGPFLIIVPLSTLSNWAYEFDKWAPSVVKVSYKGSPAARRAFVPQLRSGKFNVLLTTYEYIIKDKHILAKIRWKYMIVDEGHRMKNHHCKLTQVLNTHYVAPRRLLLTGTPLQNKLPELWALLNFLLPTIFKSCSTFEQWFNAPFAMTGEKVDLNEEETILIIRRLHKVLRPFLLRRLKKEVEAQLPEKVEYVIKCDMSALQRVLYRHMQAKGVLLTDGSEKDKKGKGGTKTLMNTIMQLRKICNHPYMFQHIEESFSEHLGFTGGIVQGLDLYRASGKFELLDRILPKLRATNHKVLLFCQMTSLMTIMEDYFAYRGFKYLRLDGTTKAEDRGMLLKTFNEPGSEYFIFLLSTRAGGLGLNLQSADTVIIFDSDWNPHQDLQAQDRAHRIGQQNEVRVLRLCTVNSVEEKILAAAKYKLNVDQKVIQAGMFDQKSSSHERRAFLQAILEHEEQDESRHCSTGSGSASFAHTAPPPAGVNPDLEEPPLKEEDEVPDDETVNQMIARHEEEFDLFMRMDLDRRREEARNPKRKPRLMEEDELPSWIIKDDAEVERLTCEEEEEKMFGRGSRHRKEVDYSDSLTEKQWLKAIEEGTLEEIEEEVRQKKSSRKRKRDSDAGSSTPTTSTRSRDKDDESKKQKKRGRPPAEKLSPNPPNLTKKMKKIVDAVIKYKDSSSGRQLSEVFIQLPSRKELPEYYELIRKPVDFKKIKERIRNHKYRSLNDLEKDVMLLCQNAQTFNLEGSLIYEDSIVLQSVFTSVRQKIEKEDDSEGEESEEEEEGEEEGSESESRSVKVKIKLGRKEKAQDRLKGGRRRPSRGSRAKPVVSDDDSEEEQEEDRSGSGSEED
T1 sequence (P51531 whole entry): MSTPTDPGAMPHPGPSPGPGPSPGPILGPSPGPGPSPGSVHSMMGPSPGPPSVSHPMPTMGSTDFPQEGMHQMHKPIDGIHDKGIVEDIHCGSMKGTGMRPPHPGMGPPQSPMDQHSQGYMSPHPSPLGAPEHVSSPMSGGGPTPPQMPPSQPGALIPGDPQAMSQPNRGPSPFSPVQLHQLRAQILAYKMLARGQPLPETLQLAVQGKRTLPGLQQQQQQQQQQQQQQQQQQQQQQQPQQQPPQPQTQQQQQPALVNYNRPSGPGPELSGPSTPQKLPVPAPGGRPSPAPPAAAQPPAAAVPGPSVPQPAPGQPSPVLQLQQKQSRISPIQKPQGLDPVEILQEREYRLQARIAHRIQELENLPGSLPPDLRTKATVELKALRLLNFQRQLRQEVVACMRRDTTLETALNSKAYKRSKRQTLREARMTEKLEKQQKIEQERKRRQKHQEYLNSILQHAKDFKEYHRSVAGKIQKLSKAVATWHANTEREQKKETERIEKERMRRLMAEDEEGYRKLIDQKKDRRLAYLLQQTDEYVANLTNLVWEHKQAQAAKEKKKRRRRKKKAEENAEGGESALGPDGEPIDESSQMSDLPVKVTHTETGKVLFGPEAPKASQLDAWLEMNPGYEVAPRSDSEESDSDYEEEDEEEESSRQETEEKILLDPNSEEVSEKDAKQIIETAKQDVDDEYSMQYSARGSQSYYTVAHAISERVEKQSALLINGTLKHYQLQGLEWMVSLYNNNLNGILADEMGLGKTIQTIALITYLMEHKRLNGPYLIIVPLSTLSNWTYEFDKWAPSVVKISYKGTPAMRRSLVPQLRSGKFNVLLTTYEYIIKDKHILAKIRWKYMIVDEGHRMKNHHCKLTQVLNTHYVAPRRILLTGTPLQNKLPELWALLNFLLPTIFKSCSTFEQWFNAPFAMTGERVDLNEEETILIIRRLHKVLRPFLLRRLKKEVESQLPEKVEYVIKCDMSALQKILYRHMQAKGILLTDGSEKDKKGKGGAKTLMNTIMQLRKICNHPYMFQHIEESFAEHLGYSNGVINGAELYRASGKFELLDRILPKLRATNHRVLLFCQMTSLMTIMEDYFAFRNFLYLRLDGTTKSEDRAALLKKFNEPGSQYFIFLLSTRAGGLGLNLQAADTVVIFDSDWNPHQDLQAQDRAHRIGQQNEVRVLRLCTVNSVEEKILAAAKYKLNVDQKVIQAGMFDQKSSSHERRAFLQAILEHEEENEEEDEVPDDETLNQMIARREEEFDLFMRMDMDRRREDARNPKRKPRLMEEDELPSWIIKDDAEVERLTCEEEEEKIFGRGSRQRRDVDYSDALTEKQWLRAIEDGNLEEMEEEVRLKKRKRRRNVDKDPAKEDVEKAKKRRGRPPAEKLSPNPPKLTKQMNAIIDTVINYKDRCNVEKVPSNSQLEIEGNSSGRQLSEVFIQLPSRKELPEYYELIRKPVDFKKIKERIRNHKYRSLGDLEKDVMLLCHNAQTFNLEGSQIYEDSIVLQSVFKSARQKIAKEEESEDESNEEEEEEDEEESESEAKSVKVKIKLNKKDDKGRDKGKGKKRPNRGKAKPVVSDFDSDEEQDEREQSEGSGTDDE

SMILES	IC50 (BRM)	Ratio* (BRG1 IC50 (μM) divided by BRM IC50 (μM)) (BRM)	IC50 (BRG-1)
CS(=O)(=O)c1cc(C(=O)NCc2cc3nc(-c4cccc(N5CC[C@@H]6OCC[C@H]6C5)n4)ccc3cn2)ccc1C(F)F [Compound 123]	23.2 nM	12.51	290 nM
CS(=O)(=O)c1cc(C(=O)NCc2cc3nc(-c4cccc(N5CC[C@H]6OCC[C@@H]6C5)n4)ccc3cn2)ccc1C(F)F [Compound 124]	37.8 nM	14.29	541 nM
COCCCN(C)c1cccc(-c2ccc3cnc(CNC(=O)c4ccc5c(c4)S(=O)(=O)CCOC5)cc3n2)n1 [Compound 125]	18.3 nM	12.26	224 nM
CC(F)(F)COc1cccc(-c2ccc3cnc(CNC(=O)c4ccc5c(c4)S(=O)(=O)CCOC5)cc3n2)n1 [Compound 126]	33.5 nM	8.80	295 nM
O=C(NCc1cc2nc(-c3cccc4c3CCCN4CC(F)F)ccc2cn1)c1ccc2c(c1)S(=O)(=O)CCOC2 [Compound 127]	846 nM	4.79	4050 nM
O=C(NCc1cc2nc(-c3cccc(N4CC5(C4)CC5(F)F)n3)ccc2cn1)c1ccc2c(c1)S(=O)(=O)CCOC2 [Compound 128]	42.6 nM	10.99	468 nM
Cc1cc2c(-c3ccc4cnc(CNC(=O)c5ccc(Cl)c(S(C)(=O)=O)c5)cc4n3)cccc2n1C [Compound 129]	47.9 nM	11.91	570 nM
Cc1cc2c(-c3ccc4cnc(CNC(=O)c5ccc6c(c5)S(=O)(=O)CCOC6)cc4n3)cccc2n1C [Compound 130]	10.7 nM	9.77	104 nM
O=C(NCc1cc2nc(-c3cccc4c3OCCN4CC(F)F)ccc2cn1)c1ccc2c(c1)S(=O)(=O)CCOC2 [Compound 131]	71.6 nM	7.12	510 nM
C[C@@H]1CN(c2cccc(-c3ccc4cnc(CNC(=O)c5cnc(C(F)F)c(S(C)(=O)=O)c5)cc4n3)n2)C[C@H](C)O1 [Compound 132]	12.5 nM	16.30	204 nM
O=C(NCc1cc2nc(-c3cccc(C4CCOCC4)n3)ccc2cn1)c1ccc2c(c1)S(=O)(=O)CCOC2 [Compound 133]	61.5 nM	7.91	487 nM
COc1nn([C@H]2C[C@@H](F)C2)cc1-c1ccc2cnc(CNC(=O)c3ccc4c(c3)S(=O)(=O)CCOC4)cc2c1 [Compound 134]	186 nM	13.28	2460 nM
COCCOc1cccc(-c2ccc3cnc(CNC(=O)c4ccc5c(c4)S(=O)(=O)CCOC5)cc3n2)c1 [Compound 135]	112 nM	9.48	1060 nM
Cn1ccc2ccc(-c3ccc4cnc(CNC(=O)c5ccc6c(c5)S(=O)(=O)CCOC6)cc4n3)nc21 [Compound 136]	33.4 nM	7.15	239 nM
O=C(NCc1cc2nc(-c3ccc(F)c(OC(F)F)n3)ccc2cn1)c1ccc2c(c1)S(=O)(=O)CCOC2 [Compound 137]	22.5 nM	16.99	382 nM
C[C@@H]1CN(c2cccc(-c3ccc4cnc(CNC(=O)c5ccc(CC(F)F)c(S(C)(=O)=O)c5)cc4n3)n2)C[C@H](C)O1 [Compound 138]	10.8 nM	4.70	50.7 nM

SMILES	IC50 (BRM)	Ratio* (BRG1 IC50 (μM) divided by BRM IC50 (μM)) (BRM)	IC50 (BRG-1)
O=C(NCc1cc2nc(-c3ccc4c(n3)OCC4)ccc2cn1)c1ccc2c(c1)S(=O)(=O)CCOC2 [Compound 139]	432 nM	4.81	2070 nM
O=C(NCc1cc2nc(-c3ccc4ccn(CC(F)F)c4n3)ccc2cn1)c1ccc2c(c1)S(=O)(=O)CCOC2 [Compound 140]	35.2 nM	6.92	243 nM
C[C@@H]1CN(c2cccc(-c3cnc4cnc(CNC(=O)c5ccc6c(c5)S(=O)(=O)CCOC6)cc4n3)c2)C[C@H](C)O1 [Compound 141]	13 nM	12.97	169 nM
O=C(NCc1cc2nc(-c3cccc(C4(F)COC4)n3)ccc2cn1)c1ccc2c(c1)S(=O)(=O)CCOC2 [Compound 142]	230 nM	11.55	2660 nM
C[C@@H]1CN(c2cccc(-c3ccc4cnc(CNC(=O)c5cc(Cl)c6c(c5)S(=O)(=O)CCOC6)cc4n3)n2)C[C@H](C)O1 [Compound 143]	7.6 nM	14.36	108 nM
CN1CCN(c2cccc(-c3ccc4cnc(CNC(=O)c5ccc6c(c5)S(=O)(=O)CCOC6)cc4n3)n2)CC1 [Compound 144]	147 nM	9.21	1350 nM
COCCN(C)c1cccc(-c2ccc3cnc(CNC(=O)c4ccc5c(c4)S(=O)(=O)CCOC5)cc3n2)n1 [Compound 145]	3.6 nM	15.77	57.1 nM
Cc1cc2c(-c3ccc4cnc(CNC(=O)c5ccc6c(c5)S(=O)(=O)CCOC6)cc4n3)ccnc2n1C [Compound 146]	15.3 nM	12.92	197 nM
C[C@@H]1CN(c2cccc(-c3ccc4cnc(CNC(=O)c5cc(F)c(C(F)F)c(S(C)(=O)=O)c5)cc4n3)n2)C[C@H](C)O1 [Compound 147]	15.6 nM	25.22	394 nM
COc1nn([C@H]2C[C@@H](F)C2)cc1-c1ccc2cnc(CNC(=O)c3ccc4c(c3)S(=O)(=O)CCOC4)cc2n1 [Compound 148]	455 nM	6.80	3090 nM
COc1nn([C@H]2C[C@H](F)C2)cc1-c1ccc2cnc(CNC(=O)c3ccc4c(c3)S(=O)(=O)CCOC4)cc2c1 [Compound 149]	36.6 nM	22.13	810 nM
O=C(NCc1cc2nc(N3CCCc4cccnc43)ccc2cn1)c1ccc2c(c1)S(=O)(=O)CCOC2 [Compound 150]	33.8 nM	11.71	396 nM
Cn1ccc2c(-c3ccc4cnc(CNC(=O)c5ccc6c(c5)S(=O)(=O)CCOC6)cc4n3)ccnc21 [Compound 151]	60.8 nM	11.00	669 nM
COc1nn([C@H]2C[C@H](F)C2)cc1-c1ccc2cnc(CNC(=O)c3ccc4c(c3)S(=O)(=O)CCOC4)cc2n1 [Compound 152]	136 nM	15.77	2140 nM
C[C@@H]1CN(c2cc(-c3ccc4cnc(CNC(=O)c5ccc6c(c5)S(=O)(=O)CCOC6)cc4n3)ccn2)C[C@H](C)O1 [Compound 153]	46.3 nM	9.74	451 nM
O=C(NCc1cc2nc(-c3cccc(C4(F)CCC4)n3)ccc2cn1)c1ccc2c(c1)S(=O)(=O)CCOC2 [Compound 154]	142 nM	14.94	2130 nM
